Source: article PMC9920077, “Antimicrobial Natural Products from Plant Pathogenic Fungi” (Molecules, 2023)
In brackets after ≈: the same amount, converted by molar mass. Read-outs that look alike come from different tables or passages of the source.

Key:
[1] = system: C. neoformans ATCC 208821; assay: MIC against C. neoformans ATCC 208821, CO-ADD; type: cell-based; conditions: Cryptococcus neoformans
Excerpt: (§1) Antimicrobial evaluation of the pure compounds against A. baumannii ATCC 19606, Candida albicans ATCC 90028, Cryptococcus neoformans ATCC 208821, E. coli ATCC 25922, K. pneumoniae ATCC 700603, P. aeruginosa ATCC 27853, and S. aureus ATCC 43300 (MRSA) was undertaken at the Community for Open Antimicrobial Drug Discovery at The University of Queensland (St. Lucia, Queensland, Australia) according to standard protocols as previously described.

[2] = system: K. pneumoniae ATCC 700603; assay: MIC against K. pneumoniae ATCC 700603, CO-ADD; type: cell-based; conditions: Klebsiella pneumoniae
Excerpt: as §1

C. albicans ATCC 90028 = assay: MIC against C. albicans ATCC 90028, CO-ADD; type: cell-based, Candida albicans; conditions: Candida albicans
Excerpt: as §1

E. coli ATCC 25922 = assay: MIC against E. coli ATCC 25922, CO-ADD; type: cell-based; conditions: Escherichia coli
Excerpt: as §1

P. aeruginosa ATCC 27853 = assay: MIC against P. aeruginosa ATCC 27853, CO-ADD; type: cell-based; conditions: Pseudomonas aeruginosa
Excerpt: as §1

A. baumannii ATCC 19606 = assay: MIC against A. baumannii ATCC 19606, CO-ADD; type: cell-based; conditions: Acinetobacter baumannii
Excerpt: as §1

[3] = system: S. aureus ATCC 43300 (MRSA); assay: MIC against S. aureus ATCC 43300 (MRSA), CO-ADD; type: cell-based, Staphylococcus aureus; conditions: Staphylococcus aureus, read-out: MIC S. a
Excerpt: as §1

[4] = system: HEK293 human embryonic kidney cells
Protocol: (§2) All compounds were also evaluated for their cytotoxicity against human embryonic kidney cells (HEK-293) and any haemolytic activity against human red blood cells.

Elymus repens = system: Elymus repens; design: method as in PMID 25312126; conditions: cited from earlier work
Mycotypha microspora = system: Mycotypha microspora; design: method as in PMID 25312126; conditions: cited from earlier work
Bacillus megaterium = system: Bacillus megaterium; design: method as in doi:10.1002/ejoc.200800404; conditions: agar diffusion assay; cited from earlier work
Microbotryum violaceum = system: Microbotryum violaceum; design: method as in doi:10.1002/ejoc.200800404; conditions: agar diffusion assay; cited from earlier work
E. coli [5] = system: E. coli; design: method as in doi:10.1002/ejoc.200800404; conditions: agar diffusion assay; cited from earlier work
Sclerotinia sclerotiorum = system: Sclerotinia sclerotiorum; design: method as in PMID 19333565, doi:10.1590/S0100-40422007000700012; conditions: cited from earlier work
S. aureus = system: S. aureus; design: method as in PMID 19333565, doi:10.1590/S0100-40422007000700012; conditions: cited from earlier work
E. coli [6] = system: E. coli; design: method as in PMID 4629229; conditions: disk diffusion assays; cited from earlier work
S. cerevisiae = system: S. cerevisiae; design: method as in PMID 19333565, doi:10.1590/S0100-40422007000700012; conditions: cited from earlier work
B. subtilis = system: B. subtilis; design: method as in PMID 19333565, doi:10.1590/S0100-40422007000700012; conditions: cited from earlier work
[7] = system: Mycobacteria tuberculosis; design: method as in PMID 19333565, doi:10.1590/S0100-40422007000700012; conditions: cited from earlier work
M. marinum BSG101 = assay: Antimycobacterial bioluminescence assay of pure compounds, M. marinum; conditions: Mycobacterium marinum, BSG101, 72 h
Protocol: Antimicrobial evaluation against M. abscessus and M. marinum was undertaken using in-house assays with the bioluminescent derivatives M. abscessus BSG301 [63] and M. marinum BSG101 [64]. […] Specifically, mycobacterial cultures were grown with shaking at 200 rpm in Middlebrook 7H9 broth (Fort Richard, Auckland, New Zealand) supplemented with 10% Middlebrook ADC enrichment media (Fort Richard, Auckland, New Zealand), 0.4% glycerol (Sigma-Aldrich, St. Louis, MO, USA), and 0.05% tyloxapol (Sigma-Aldrich, St. Louis, MO, USA). M. abscessus was grown at 37 °C and M. marinum at 28 °C. Cultures were grown until they reached the stationary phase (approximately 3–5 days for M. abscessus BSG301 and 7–10 days for M. marinum BSG101) and then diluted in MHB supplemented with 10% Middlebrook ADC enrichment media and 0.05% tyloxapol to give an optical density at 600 nm (OD600) of 0.001, which is the equivalent of ~10^6 bacteria per mL. Pure compounds were dissolved in DMSO and added to the wells of a black 96-well plate (Nunc, Thermo Scientific, Waltham, MA, USA) at doubling dilutions with a maximum concentration of 128 mg/mL. […] Bacterial luminescence was measured at regular intervals over 72 h using a Victor X-3 luminescence plate reader with an integration time of 1 s. […]

[8] = Cytotoxicity on HEK293 human embryonic kidney cells
Protocol: as §2

human red blood cells = assay: Haemolytic activity on human red blood cells; conditions: concentration of compound at 10% haemolytic activity on human red blood cells; mean of two experiments
[9] = ATCC208821, C. neoformans ATCC 208821, mean of two experiments, read-out: MIC C. n
[10] = ATCC700603, K. pneumoniae ATCC 700603, mean of two experiments, read-out: MIC K. p
[11] = ATCC90028, C. albicans ATCC 90028, mean of two experiments, read-out: MIC C. a
[12] = ATCC25922, E. coli ATCC 25922, mean of two experiments, read-out: MIC E. c
[13] = ATCC27853, P. aeruginosa ATCC 27853, mean of two experiments, read-out: MIC P. a
[14] = ATCC19606, A. baumanii ATCC 19606, mean of two experiments, read-out: MIC A. b
[15] = S. aureus ATCC 43300 (MRSA), mean of two experiments

Q: Which results are given for CC(O)CCC(O)/C=C/C(=O)O (stereo not drawn) [compound 1, (E)-4,7-dihydroxyoct-2-enoic acid]?
A: MIC [1, 9]: > 184 µM; MIC [2, 10]: > 184 µM; MIC (C. albicans ATCC 90028; [11]): > 184 µM; MIC (E. coli ATCC 25922; [12]): > 184 µM; MIC (P. aeruginosa ATCC 27853; [13]): > 184 µM; MIC (A. baumannii ATCC 19606; [14]): > 184 µM; MIC [3, 15]: > 184 µM; cytotoxicity [4]: no cytotoxic or haemolytic activity

Q: Which “antifungal activity against Elymus repens” value (Elymus repens) does the source give for C/C=C/c1cc2c(c(=O)o1)C(=O)[C@@H](O)[C@H](C)O2 [compound 2, radicinin] here?
A: Its value is “moderate antifungal activity”.

Q: What about the MIC ([1]; ATCC208821, read-out: MIC C. n) of the same compound?
A: Its MIC is greater than 135 µM.

Q: What about the MIC ([2]; ATCC700603, read-out: MIC K. p) of the same compound?
A: The MIC was greater than 135 µM.

Q: And the “antifungal activity against Mycotypha microspora” value (Mycotypha microspora)?
A: Its value is “moderate antifungal activity”.

Q: And the MIC (C. albicans ATCC 90028; ATCC90028, read-out: MIC C. a)?
A: The MIC was greater than 135 µM.

Q: What about the MIC (E. coli ATCC 25922; ATCC25922, read-out: MIC E. c) of the same compound?
A: Its MIC is greater than 135 µM.

Q: And the MIC (P. aeruginosa ATCC 27853; ATCC27853, read-out: MIC P. a)?
A: The MIC was greater than 135 µM.

Q: What about the MIC (A. baumannii ATCC 19606; ATCC19606, read-out: MIC A. b) of the same compound?
A: Its MIC is greater than 135 µM.

Q: What about the MIC [3] of the same compound?
A: The MIC was greater than 135 µM.

Q: Which MIC [1, 9] does the source give for C/C1=C\C[C@]2(C)C(=O)C(O)=C([C@H](C)CO)[C@H]2C/C=C(\C)[C@@H](O)CC/C(C)=C/CC1 [compound 3, terpestacin] here?
A: The MIC was greater than 79 µM.

Q: And the MIC [2, 10]?
A: Its MIC is greater than 79 µM.

Q: What about the MIC (C. albicans ATCC 90028; [11]) of the same compound?
A: The MIC was greater than 79 µM.

Q: And the MIC (E. coli ATCC 25922; [12])?
A: Its MIC is greater than 79 µM.

Q: What about the MIC (P. aeruginosa ATCC 27853; [13]) of the same compound?
A: The MIC was greater than 79 µM.

Q: And the MIC (A. baumannii ATCC 19606; [14])?
A: Its MIC is greater than 79 µM.

Q: And the MIC [3, 15]?
A: The MIC was greater than 79 µM.

Q: What does the source list for C[C@@H]1CCC(=O)CCC(=O)O[C@H](C)CC[C@H](O)/C=C/C(=O)O1 [compound 4, tetrahydropyrenophorin]?
A: antibacterial activity against Bacillus megaterium (Bacillus megaterium): moderate antibacterial activity; MIC [1, 9]: > 102 µM; MIC [2, 10]: > 102 µM; antifungal activity against Microbotryum violaceum (Microbotryum violaceum): antifungal activity; antibacterial activity against E. coli (E. coli [5]): moderate antibacterial activity; MIC (C. albicans ATCC 90028; [11]): > 102 µM; MIC (E. coli ATCC 25922; [12]): > 102 µM; MIC (P. aeruginosa ATCC 27853; [13]): > 102 µM; MIC (A. baumannii ATCC 19606; [14]): > 102 µM; MIC [3, 15]: > 102 µM

Q: For CC1CCCCCC(=O)c2c(O)cc(O)cc2CC(=O)O1 (stereo not drawn) [compound 5, curvularin], which “antimicrobial activity against Sclerotinia sclerotiorum” value (Sclerotinia sclerotiorum) is on record?
A: Its value is “inactive”.

Q: What about the MIC [1, 9] of the same compound?
A: The MIC was greater than 109 µM.

Q: What about the MIC [2, 10] of the same compound?
A: Its MIC is greater than 109 µM.

Q: And the “antimicrobial activity against S. aureus” value (S. aureus)?
A: The value was “inactive”.

Q: What about the “activity against E. coli” value (E. coli [6]) of the same compound?
A: The value was “none of the compounds were active”.

Q: What about the “antimicrobial activity against S. cerevisiae” value (S. cerevisiae) of the same compound?
A: Its value is “inactive”.

Q: What about the “antimicrobial activity against B. subtilis” value (B. subtilis) of the same compound?
A: The value was “inactive”.

Q: And the MIC (C. albicans ATCC 90028; [11])?
A: Its MIC is greater than 109 µM.

Q: And the MIC (E. coli ATCC 25922; [12])?
A: Its MIC is greater than 109 µM.

Q: And the MIC (P. aeruginosa ATCC 27853; [13])?
A: The MIC was greater than 109 µM.

Q: What about the MIC (A. baumannii ATCC 19606; [14]) of the same compound?
A: Its MIC is greater than 109 µM.

Q: And the “antimicrobial activity against Mycobacteria tuberculosis” value [7]?
A: Its value is “inactive”.

Q: What about the MIC [3, 15] of the same compound?
A: The MIC was greater than 109 µM.

Q: With C[C@H]1CCC/C=C/C(=O)c2c(O)cc(O)cc2CC(=O)O1 [compound 6, dehydro-curvularin] as the compound, how does the “antimicrobial activity against Sclerotinia sclerotiorum” value (Sclerotinia sclerotiorum) read?
A: Its value is “inactive”.

Q: What about the MIC ([1]; ATCC208821, read-out: MIC C. n) of the same compound?
A: Its MIC is greater than 110 µM.

Q: What about the MIC ([2]; ATCC700603, read-out: MIC K. p) of the same compound?
A: The MIC was greater than 110 µM.

Q: And the “antimicrobial activity against S. aureus” value (S. aureus)?
A: The value was “inactive”.

Q: And the MIC (M. marinum BSG101)?
A: Its MIC is 32 µg/mL (≈ 110 µM).

Q: And the CC50 [8]?
A: The CC50 was 1270 nM.

Q: And the “antimicrobial activity against S. cerevisiae” value (S. cerevisiae)?
A: The value was “inactive”.

Q: And the HC10 (human red blood cells)?
A: The HC10 was greater than 110 µM.

Q: And the “antimicrobial activity against B. subtilis” value (B. subtilis)?
A: The value was “inactive”.

Q: And the MIC (C. albicans ATCC 90028; ATCC90028, read-out: MIC C. a)?
A: The MIC was greater than 110 µM.

Q: And the MIC (E. coli ATCC 25922; ATCC25922, read-out: MIC E. c)?
A: The MIC was greater than 110 µM.

Q: What about the MIC (P. aeruginosa ATCC 27853; ATCC27853, read-out: MIC P. a) of the same compound?
A: The MIC was greater than 110 µM.

Q: And the MIC (A. baumannii ATCC 19606; ATCC19606, read-out: MIC A. b)?
A: Its MIC is greater than 110 µM.

Q: What about the “MIC against M. tuberculosis” value [7] of the same compound?
A: Its value is 40 µM (≈ 11.6 µg/mL).

Q: And the “antimicrobial activity against Mycobacteria tuberculosis” value [7]?
A: The value was “active”.

Q: What about the MIC [3] of the same compound?
A: Its MIC is greater than 110 µM.
